The text below walks through data of paper PMC7023239, “Evaluation of the Biodistribution of Serinolamide-Derivatized C60 Fullerene” (Nanomaterials, 2020).

The structures appear in SMILES notation.

The nature of data set [1]: PET/CT biodistribution in mice. The data set is classed as in vivo, male nude mice. As for the experimental part: PET and CT scans were performed using a small animal Albira PET/SPECT/CT scanner (Bruker Corporation, Billerica, MA, USA). PET images were analyzed using PMOD Version 3.505 (PMOD Technologies Ltd., Zürich, Switzerland). PET/CT maximum intensity projections were constructed using Inveon Research Workplace (Siemens Medical Solutions USA, Inc., Malvern, PA, USA). Statistical analysis was performed on GraphPad Prism 8 (GraphPad Software, San Diego, CA, USA).
PET Image Acquisition: All mice were manipulated in accordance to the MD Anderson Cancer Center’s IACUC guidelines. Mice were anesthetized with 2% isoflurane using oxygen as a carrier. For both C60-[^64Cu]Cu(NOTA) and [^64Cu]Cu(NOTA), 6 male nude mice were injected on the bed with ~200 μCi of activity in 150 μL of saline through a tail vein catheter. At the start of injection, a 20-min dynamic PET scan was acquired using the Albira PET/SPECT/CT scanner with a 15 cm field of view (FOV). The actual injected dose was calculated by measuring the pre- and post-injection activity in the syringe using a CRC-15R dose calibrator (Capintec, Inc., Florham Park, NJ, USA). The data were binned into 20-s time frames for the first 5 min, 60-s frames for the next 5 min, and 5-min frames for the next 10 min. Static PET images were then recorded at 3 h and 24 h post-injection (p.i.) for 10 min. A static PET image at 48 h p.i. was recorded for 20 min for C60-[^64Cu]Cu(NOTA) only. Following all PET scans, two 3 min CT scans were performed to cover the whole mouse body with a total FOV of 12.6 cm (400 μA, 45 kV, 250 projections).
The PET images were reconstructed using the Maximum Likelihood Expectation Maximization method with 12 iterations. The CT images were reconstructed using the Filtered Back Projection method. Scatter, randoms, decay, and attenuation corrections were applied through the Albira software. Volumes-of-interest (VOIs) were drawn for the major organs on the decay-corrected PET images using PMOD, and injected doses were used to calculate percent of injected dose per cubic centimeter of tissue (%ID/cc). […]

A short description of data set [2]: Two-phase decay model of heart TAC (blood pharmacokinetics). As to conditions: mice, tail vein. The class given is in vivo, male nude mice. From the text: The PET images were reconstructed using the Maximum Likelihood Expectation Maximization method with 12 iterations. The CT images were reconstructed using the Filtered Back Projection method. Scatter, randoms, decay, and attenuation corrections were applied through the Albira software. Volumes-of-interest (VOIs) were drawn for the major organs on the decay-corrected PET images using PMOD, and injected doses were used to calculate percent of injected dose per cubic centimeter of tissue (%ID/cc). Errors in the averaged %ID/cc were reported as standard error of the mean (SEM). A non-linear regression analysis of the dynamic PET data for both C60-[^64Cu]Cu(NOTA) and [^64Cu]Cu(NOTA) was performed and fitted to a two-phase decay model to determine the blood half-life of each compound.
We also performed a non-linear regression analysis of the heart TAC data of both compounds using a two-phase decay model, which produced a p value of < 0.0001 by an extra sum-of-squares F test. The two-phase decay model consists of a distribution phase and an elimination phase. The fast distribution phase describes the rapid circulation of the material from the plasma to highly-perfused tissues, and the slow elimination phase describes the clearance of the material from the plasma and tissues through excretion. From this analysis, a blood half-life (t1/2) and rate constants (α, β) for each phase were determined along with the clearance rate (CL) and the area under the curve (AUC), which represents a normalized volume of distribution (Table 1).

In the case of `O=C([O-])CN1CCN(CC(=O)[O-])CCN(CC(=O)O)CC1.[64Cu+2]` [[^64Cu]Cu(NOTA)], the “period in which most of the material was cleared by renal excretion” value in data set [1] (PET) is “between 20 min and 3 h p.i”. Further, the “uptake / detected signal at 48 h p.i.” value in data set [1] (PET static scan, 48 h p.i., any organ) is “negligible”. For the same molecule, the “uptake in the kidneys compared to other major organs” value in data set [1] (PET, 20 min p.i.) is “significant uptake”. Further, in data set [2], the “Area under Curve (AUC)” value was 3.173 × 10^2 %ID·min/cc, the “Distribution Half-Life” value is reported as 0.4975 min, the “Distribution Rate Constant (α)” value worked out at 1.393 min⁻¹ and the “Elimination Half-Life” value is listed as 8.153 min. Besides, the “Elimination Rate Constant (β)” value in data set [2] amounted to 0.08501 min⁻¹.
